The results in this text go back to patent US20240327375A1, “SUBSTITUTED HETEROBICYCLIC DERIVATIVES AS NEGATIVE ALLOSTERIC MODULATORS OF MGLU7 RECEPTOR” (priority 2021, published 2024).

Each structure is given as a SMILES string. pIC50: −log10 of the molar value. Where a name gives a salt, the structure may show the parent alone.

In data set [1] the target is T1, human mGlu7 (Homo sapiens, UniProt Q14831).
T1 construct: expressed in transfected cells
The experiment in a line: mGlu7 assay on HEK-expressing human mGlu7: fluorescent cell-based Ca2+ mobilization (FLIPR384), inhibition of EC80 L-AP4 response. As to conditions: HEK-293 cells expressing hmGlu7, EC80 L-AP4 stimulation; mean of at least three independent experiments in duplicate; read-out: Ca^2+ Flux (mean IC50). From the text:
mGlu7 Assay on HEK-Expressing Human mGlu7
The cDNA encoding the human metabotropic glutamate 7 receptor (hmGlu7), (accession number NM_181874.2, NCBI Nucleotide database browser), was subcloned into an expression vector containing also the hygromycin resistance gene. In parallel, the cDNA encoding a G protein allowing redirection of the activation signal to intracellular calcium flux was subcloned into a different expression vector containing also the Puromycin resistance gene. Transfection of both these vectors into HEK293 cells with PolyFect reagent (Qiagen) according to supplier's protocol, and hygromycin and puromycin treatment allowed selection of antibiotic resistant cells which had integrated stably one or more copies of the plasmids. Positive cellular clones expressing hmGlu7 were identified in a functional assay measuring changes in calcium fluxes in response to glutamate and L-AP4 or known mGlu7 orthosteric antagonists.
HEK-293 cells expressing hmGlu7 were maintained in media containing DMEM, Fetal Bovine Serum (10%), Glutamax™ (2 mM), penicillin (100 units/mL), streptomycin (100 μg/mL), geneticin (100 μg/mL) and hygromycin-B (40 μg/mL) and puromycin (1 μg/mL) at 37° C. with 5% CO2 in a humidified atmosphere.
Fluorescent Cell Based- Ca^+ Mobilization Assay Human mGlu7 HEK-293 cells were plated out 24 hours prior to a fluorescent cell-based calcium mobilization assay using FLIPR^384 assay (Molecular Device, Sunnyvale, CA, USA) in black-walled, clear-bottomed, poly-L-ornithine-coated 384-well plates at a density of 25,000 cells/well in a glutamine/glutamate free DMEM medium containing fetal bovine serum (10%), penicillin (100 units/mL), streptomycin (100 μg/mL) and doxycyline (1 μg/ml) at 37° C. with 5% CO2 in a humidified atmosphere.
On the day of the assay, the medium was aspirated and the cells were loaded with a 3 μM solution of Fluo4-AM (LuBioScience, Lucerne, Switzerland) in 0.03% pluronic acid. After 1 hour at 37° C./5% CO2, the non incorporated dye was removed by washing cell plate with the assay buffer. All assays were performed in a pH 7.4 buffered-solution containing 20 mM HEPES, 143 mM NaCl, 6 mM KCl, 1 mM MgSO4, 1 mM CaCl2, 0.125 mM sulfinpyrazone and 0.1% glucose.
After 10 s of basal fluorescence recording, various concentrations of the compounds of the invention were added to the cells. Changes in fluorescence levels were first monitored for 180 s in order to detect any agonist activity of the compounds. Then the cells were stimulated by an EC80 L-AP4 concentration for an additional 110 s in order to measure inhibiting activities of the compounds of the invention. EC80 L-AP4 concentration is the concentration giving 80% of the maximal glutamate response.
The concentration-response curves of L-AP4 or representative compounds of the present invention were generated using the Prism GraphPad software (Graph Pad Inc, San Diego, USA). The curves were fitted to a four-parameter logistic equation: […]
allowing determination of IC50 values.
The Table 3 below represents the mean IC50 obtained from at least three independent experiments of selected molecules performed in duplicate.
In general terms: Calcium flux is commonly read through the fluorescence of an indicator in the cells.

T1 sequence (Q14831 35-922 isoform Q14831-2 limits assumed): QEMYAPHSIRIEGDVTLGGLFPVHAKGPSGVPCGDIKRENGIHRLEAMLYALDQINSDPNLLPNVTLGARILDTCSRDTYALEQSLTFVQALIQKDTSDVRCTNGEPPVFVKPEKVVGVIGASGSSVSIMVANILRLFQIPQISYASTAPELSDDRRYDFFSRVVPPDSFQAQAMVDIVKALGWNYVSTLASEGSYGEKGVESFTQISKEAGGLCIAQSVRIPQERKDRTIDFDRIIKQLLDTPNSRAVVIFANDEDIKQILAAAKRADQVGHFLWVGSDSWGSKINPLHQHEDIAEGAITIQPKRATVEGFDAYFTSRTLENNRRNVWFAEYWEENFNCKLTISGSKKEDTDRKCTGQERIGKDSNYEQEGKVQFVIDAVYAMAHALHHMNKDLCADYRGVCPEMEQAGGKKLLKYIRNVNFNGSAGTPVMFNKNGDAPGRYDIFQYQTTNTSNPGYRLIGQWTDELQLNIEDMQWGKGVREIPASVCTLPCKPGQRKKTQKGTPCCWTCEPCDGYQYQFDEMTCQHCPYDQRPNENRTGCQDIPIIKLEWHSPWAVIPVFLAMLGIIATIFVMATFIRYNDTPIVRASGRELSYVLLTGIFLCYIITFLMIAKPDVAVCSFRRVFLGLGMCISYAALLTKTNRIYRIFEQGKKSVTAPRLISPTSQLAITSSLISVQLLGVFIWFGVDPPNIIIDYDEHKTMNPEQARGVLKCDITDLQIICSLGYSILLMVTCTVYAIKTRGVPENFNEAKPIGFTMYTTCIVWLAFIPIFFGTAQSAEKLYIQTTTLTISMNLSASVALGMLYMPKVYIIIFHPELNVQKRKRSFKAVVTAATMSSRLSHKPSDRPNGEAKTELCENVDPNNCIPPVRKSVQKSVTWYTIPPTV

Broadly, the pIC50 is the negative decadic logarithm of the IC50, by convention in mol/L. A word on the melting point: it is the temperature of the solid-liquid transition. In the case of `O=c1c2ccc(-c3cccc(C4CC4)c3)cc2cnn1-c1ccccn1` [1-22, 6-(3-Cyclopropylphenyl)-2-(pyridin-2-yl)phthalazin-1(2H)-one], the melting point is 181 to 184 °C. Besides, in data set [1], the pIC50 is 6.00 to 7.00.
With `Cc1ccc(-c2ccc3c(=O)n(-c4ccccc4Cl)ncc3c2)c(C)c1` [1-5, 2-(2-Chlorophenyl)-6-(2,4-dimethylphenyl)phthalazin-1(2H)-one], in data set [1], the pIC50 was 6.00 to 7.00.
In the case of `COc1cnc(-n2ncc3cc(-c4cccc5c4CCN5C)ccc3c2=O)nc1` [1-57], in data set [1], the negative logarithm of the IC50 (pIC50) was over 7.00.
As to `COc1cccc(-c2ccc3c(=O)n(-c4ncc(Cl)cn4)ncc3c2)c1C` [1-90], in data set [1], the pIC50 was over 7.00.
Same read-out and setting: under `CNCCNc1cnc(-n2ncc3cc(-c4cccc(OC)c4C)ccc3c2=O)nc1` [1-105] stands 6.00 to 7.00; under `Cc1ccc(-c2ccc3c(=O)n(-c4ncc(N5CCOCC5)cn4)ncc3c2)c(C)c1` [1-81], 6.00 to 7.00; under `O=c1c2ccc(-c3nccc(N4CCC4)n3)cc2cnn1-c1ccccn1` [1-50], 5.00 to 6.00.
With `COc1cccc(-c2ccc3c(=O)n(-c4ncc(N5CC6(COC6)C5)cn4)ncc3c2)c1C` [1-84, 2-(5-(2-Oxa-6-azaspiro[3.3]heptan-6-yl)pyrimidin-2-yl)-6-(3-methoxy-2-methylphenyl)phthalazin-1(2H)-one], the negative-log IC50 (pIC50) in data set [1] is 6.00 to 7.00.
As for `COc1cccc(-c2ccc3c(=O)n(-c4ncccn4)ncc3c2)c1` [1-31], the negative logarithm of the IC50 (pIC50) in data set [1] is 6.00 to 7.00.
In the case of `O=c1c2ccc(-c3cccc(OC4CC4)c3Cl)cc2cnn1-c1ncccn1` [1-41], the negative logarithm of the IC50 (pIC50) in data set [1] was 6.00 to 7.00.
Regarding `COc1cccc(-c2ccc3c(=O)n(-c4ccc(NC(=O)[C@@H](N)C(C)C)cn4)ncc3c2)c1C` [1-98, (S)-2-Amino-N-(6-(6-(3-methoxy-2-methylphenyl)-1-oxophthalazin-2(1H)-yl)pyridin-3-yl)-3-methylbutanamide hydrochloride], the negative logarithm of the IC50 (pIC50) in data set [1] is 6.00 to 7.00.
Regarding `O=c1c2ccc(-c3cc(N4CCC4)ccc3F)cc2cnn1-c1ccccn1` [1-52], the pIC50 in data set [1] is over 7.00.
Take `COc1cccc(-c2ccc3c(=O)n(-c4ncc(C)cn4)ncc3c2)c1C` [1-54]: the pIC50 in data set [1] was over 7.00.
On the same count and under the same terms, as for `CC(=O)c1ccc(-n2ncc3cc(-c4ccc(C)cc4C)ccc3c2=O)cc1` [1-12], the figure is 6.00 to 7.00; as for `COc1cccc(-c2ccc3c(=O)n(-c4cc(C)ccn4)ncc3c2)c1` [1-30], 6.00 to 7.00.
Still for that read-out and setting: as for `COc1ccc(-c2ccc3c(=O)n(-c4ccccn4)ncc3c2)cc1` [1-17], the figure is 6.00 to 7.00; as for `COc1cccc(-c2ccc3c(=O)n(-c4ncc(N5CCC(O)C5)cn4)ncc3c2)c1C` (stereo not shown) [1-65], over 7.00; as for `Cc1c(-c2ccc3c(=O)n(-c4ccccn4)ncc3c2)cccc1N1CCC1` [1-77], over 7.00.
Take `COc1cccc(-c2ccc3c(=O)n(-c4ccc(C(=O)NCC(C)(C)O)cn4)ncc3c2)c1C` [1-92]: the pIC50 in data set [1] is over 7.00.
On the same count and under the same terms, under `COc1cccc(-c2ccc3c(=O)n(-c4ncc(NC5CCC(O)C5)cn4)ncc3c2)c1C` (stereo not shown) [1-87] stands over 7.00; under `COc1cccc(-c2ccc3c(=O)n(-c4ccc(SC)cn4)ncc3c2)c1C` [1-67], 6.00 to 7.00.
Still for that read-out and setting: under `O=c1c2ccc(-c3ccc(F)c(N4CCC4)c3)cc2cnn1-c1ccccn1` [1-51] stands 5.00 to 6.00; under `CN1CCc2c(-c3ccc4c(=O)n(-c5ncccn5)ncc4c3)cccc21` [1-44], over 7.00; under `COc1cccc(-c2ccc3c(=O)n(-c4ncc(NCC(C)(C)OC)cn4)ncc3c2)c1C` [1-110, 6-(3-Methoxy-2-methylphenyl)-2-(5-((2-methoxy-2-methylpropyl)amino)pyrimidin-2-yl)phthalazin-1(2H)-one], 6.00 to 7.00.
Still for that read-out and setting: as for `COc1cccc(-c2ccc3c(=O)n(-c4ncc(N5CCC(N(C)C)C5)cn4)ncc3c2)c1C` (stereo not shown) [1-101], the figure is 6.00 to 7.00; as for `O=c1c2ccc(-c3cccc(N4CCC4)c3)cc2cnn1-c1ccccn1` [1-45], over 7.00.
For `CCn1ncc2cc(-c3cccc(N4CCCC4)c3)ccc2c1=O` [1-13, 2-Ethyl-6-(3-(pyrrolidin-1-yl)phenyl)phthalazin-1(2H)-one], the pIC50 in data set [1] is 5.00 to 6.00.
As for `COc1cccc(-c2ccc3c(=O)n(-c4ccccn4)ncc3c2)c1C` [1-35], the pIC50 in data set [1] was over 7.00.
Still for that read-out and setting: as for `CCOc1cccc(-c2ccc3c(=O)n(CC)ncc3c2)c1` [1-7], the figure is 6.00 to 7.00; as for `COc1cccc(-c2ccc3c(=O)n(-c4ncc(NC5CCC(O)CC5)cn4)ncc3c2)c1C` (stereo not shown) [1-74], over 7.00.
On the same count and under the same terms, as for `Cc1ccc(-c2ccc3c(=O)n(-c4ccncc4)ncc3c2)c(C)c1` [1-18], the figure is 6.00 to 7.00; as for `COc1cccc(-c2ccc3c(=O)n(-c4ncc(NCCN5CCCC5)cn4)ncc3c2)c1C` [1-95], 6.00 to 7.00; as for `COc1cccc(-c2ccc3c(=O)n(-c4ccc(NC(=O)[C@@H]5CCCN5)cn4)ncc3c2)c1C` [1-99], 6.00 to 7.00.
Same read-out and setting: as for `COc1cnc(-n2ncc3cc(-c4cccc(OC)c4C)ccc3c2=O)nc1` [1-55], the figure is over 7.00; as for `CCn1ncc2cc(-c3cccc(N(C)C)c3)ccc2c1=O` [1-6], 6.00 to 7.00.
For the compound `O=c1c2ccc(-c3cccc(OC(F)F)c3)cc2cnn1-c1ccccn1` [1-38], in data set [1], the pIC50 was over 7.00.
As to `COc1nccc(-c2ccc3c(=O)n(-c4ncccn4)ncc3c2)c1F` [1-112], the negative-log IC50 (pIC50) in data set [1] is 5.00 to 6.00.
For `Cc1ccc(-c2ccc3c(=O)n(-c4ccccc4F)ncc3c2)c(C)c1` [1-4, 6-(2,4-Dimethylphenyl)-2-(2-fluorophenyl)phthalazin-1(2H)-one], in data set [1], the pIC50 was 6.00 to 7.00.
Still for that read-out and setting: as for `COCCNc1cnc(-n2ncc3cc(-c4cccc(OC)c4C)ccc3c2=O)nc1` [1-79], the figure is over 7.00; as for `CN1CCCc2c(-c3ccc4c(=O)n(-c5ncccn5)ncc4c3)cccc21` [1-108], over 7.00; as for `COc1cccc(-c2ccc3c(=O)n(-c4ccc(NC(=O)[C@@H](N)CO)cn4)ncc3c2)c1C` [1-102], over 7.00.
Regarding `COc1cccc(-c2ccc3c(=O)n(-c4ccc(C(=O)N5CCC(O)C5)cn4)ncc3c2)c1C` (stereo not shown) [1-93], in data set [1], the negative-log IC50 (pIC50) was over 7.00.
Regarding `COc1cccc(-c2ccc3c(=O)n(-c4ncc(N5CCCC(N(C)C)C5)cn4)ncc3c2)c1C` (stereo not shown) [1-103], the negative logarithm of the IC50 (pIC50) in data set [1] was 6.00 to 7.00.
Same read-out and setting: as for `COc1cccc(-c2ccc3c(=O)n(-c4ncc(N5CCSCC5)cn4)ncc3c2)c1C` [1-78], the figure is 6.00 to 7.00.
Turning to `COc1cccc(-c2ccc3c(=O)n(-c4ncc(F)cn4)ncc3c2)c1C` [1-62], in data set [1], the negative logarithm of the IC50 (pIC50) was over 7.00.
